Reference: publication PMC13242511, “Disrupting Notch signalling by a small molecule inhibiting dihydroorotate dehydrogenase activity” (Scientific Reports, 2026)

Assays:
Type in all cases: cell-based
Notch signalling [1] = assay: Notch reporter assay (12xCSL firefly luciferase / renilla luciferase, HEK293T Notch1ΔE reporter cell line clone #A1-11); design: Confirmation screen: unit not given here; conditions: for inhibitor ratio in % of DMSO in 3 point DR: 3-point DR confirmation screen, Notch reporter assay
How it was run: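 Compounds at two-fold concentration in 10 µl medium were brought to one-fold by adding 10 µl holding 4000 Notch reporter cells (clone #A1-11) per well of a 384-well plate. After 24 h, Promega dual-GLO firefly and renilla luciferase were read on a SpectraMaxi3. Dose-response curves were fitted with a log(inhibitor) vs. response variable-slope model.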

Notch signalling [2] = assay: as above; conditions: 24 h, unit from Fig. 2 legend
γ-secretase complex = γ-secretase complex (Homo sapiens, UniProt P49768); assay: APP-C99 counter assay (GSI reporter assay); conditions: for 3p-DR in % of DMSO counter: APP-C99 counter assay
How it was run: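 Cells transfected with APP-C99 firefly luciferase reporter plus renilla normalization plasmid, seeded 24 h later onto compound plates and cultured 24 h. Dual luciferase read in triplicate per concentration; IC50 from variable-slope log(inhibitor) fit, with AUC also calculated from dose–response curves.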

[3] = 10 µM, sheet conf vs counter 10 µM, same values as 3-point DR confirmation screen
[4] = 25 µM, Notch reporter 3-point dose-confirmation assay, sheet "conf vs counter 25 µM"
[5] = 10 µM, sheet conf vs counter 10 µM
[6] = 25 µM, sheet "conf vs counter 25 µM", same values given as % of DMSO in sheet "3p-DR in % of DMSO counter"

SMILES	inhibitor ratio in % of DMSO in 3 point DR (Notch signalling [1]; 10µM)	Confirmation screen (Notch signalling [1]; [3])	inhibitor ratio in % of DMSO in 3 point DR (Notch signalling [1]; 25µM)	Confirmation screen (Notch signalling [1]; [4])	inhibitor ratio in % of DMSO in 3 point DR (Notch signalling [1]; 1,25µM)	Primary screen at 10 µM (Notch reporter signal) (Notch signalling [2])	3p-DR in % of DMSO counter (γ-secretase complex; 10µM)	Counter screen (Hek APP-C99) (γ-secretase complex; [5])	3p-DR in % of DMSO counter (γ-secretase complex; 25µM)	Counter screen (Hek APP-C99) (γ-secretase complex; [6])	3p-DR in % of DMSO counter (γ-secretase complex; 1,25µM)
Nc1ccc(Sc2nccnc2N2CCCC2)cc1 [CBK089520]	42.1 % of DMSO	42.1	27.1 % of DMSO	27.1	103.0 % of DMSO	43.1 % of DMSO	34.9 % of DMSO	34.9	11.6 % of DMSO	11.6	115.4 % of DMSO
CCC(C)(C)c1ccc(S(=O)(=O)Nc2ccc3ncsc3c2)cc1 [CBK043490]	33.5 % of DMSO	33.5	42.6 % of DMSO	42.6	42.1 % of DMSO	46.9 % of DMSO	45.0 % of DMSO	45.0	59.5 % of DMSO	59.5	53.8 % of DMSO
c1ccc2c(c1)CCN(c1nc3cc4c(cc3s1)OCCO4)C2 [CBK287498]	38.9 % of DMSO	38.9	27.1 % of DMSO	27.1	48.5 % of DMSO	36.8 % of DMSO	45.9 % of DMSO	45.9	37.5 % of DMSO	37.5	59.5 % of DMSO
COc1cccc(OCC2CCCN(C(=O)CCc3cnn(C)c3)C2)c1 (stereo not shown) [CBK306931]	57.0 % of DMSO	57.0	34.9 % of DMSO	34.9	63.9 % of DMSO	46.7 % of DMSO	59.0 % of DMSO	59.0	46.1 % of DMSO	46.1	61.2 % of DMSO
O=C(Nc1ccc(O)c(-c2nc3ccccc3o2)c1)c1ccc(-c2ccc([N+](=O)[O-])cc2)o1 [CBK263439]	110.7 % of DMSO	110.7	101.9 % of DMSO	101.9	103.9 % of DMSO	63.7 % of DMSO	127.0 % of DMSO	127.0	166.0 % of DMSO	166.0	130.0 % of DMSO
